Patent US20100048577A1, “Method for treating benign prostate hyperplasia using resveratrol” (priority 2008, published 2010)

Columns and labels:
[1] = tested on: induced BPH (prostate weight/body weight ratio); experiment: Testosterone enanthate induced BPH in rats, prostate weight after 29 days of treatment (Example 1); format: in vivo; conditions: Sprague Dawley rats, finasteride 10 mg s.c., resveratrol 1 g/kg in diet, saw palmetto 625 mg/kg in diet
Protocol: Sexually mature Sprague Dawley rats were given two, intramuscular injections of testosterone enanthate, at 25 mg. This induced BPH.
Animals were then divided into different groups. A first group of 5 animals received finasteride, via subcutaneous injection at a dose of 10 mg. A second group received 1 g/kg of body weight of resveratrol, mixed into their diet. A third group received saw palmetto, at 625 mg/kg, mixed into their diet. The control group received the vehicle for the active material only with no active ingredient.
Following 29 days of treatment, all animals were sacrificed. Prostates were dissected free of fat, and weighed.
The injection of the testosterone enanthate increased the prostate weight/body weight ratio by about 2-fold.

[2] = tested on: BPH (prostate weight/body weight indices); experiment: Cure or prevention of testosterone enanthate induced BPH, fortified diets, prostate weight/body weight index at day 29 (Example 2); format: in vivo; conditions: testosterone enanthate 25 mg i.m. days 1 and 7, diet with 1 g/kg resveratrol or trimethoxystilbene, 625 mg/kg saw palmetto, or finasteride 10 mg s.c. on 5 days
Protocol: These experiments were designed to determine whether resveratrol and trimethoxystilbene could cure or prevent BPH. Experimental animals received diets that were fortified with one of trans-resveratrol (1 g/kg), trimethoxystilbene (1 g/kg), or saw palmetto (625 mg/kg). An additional group of animals received injections of finasteride fourteen days after the start of the experiment. The animals received one, subcutaneous injection of 10 mg of finasteride in 0.1 ml dimethyl sulfoxide on 5 consecutive days. All animals, except the absolute control group, received injections of testosterone enanthate (25 mg, in 0.1 ml mineral oil). The injections were administered intramuscularly, on days 1 and 7 of the study. The absolute control group received intramuscular injections of 0.1 ml of mineral oil. At day 29, all test animals were weighed, sacrificed and their prostates were dissected free of fat and weighed. Prostate weight/body weight indices were determined for each group.

[3] = tested on: Normal human prostate endothelial cells (ATCC CRL-11611); experiment: Gene expression of normal human prostate cells treated or not treated with resveratrol (Example 3); format: cell-based; conditions: resveratrol 50 μM, 48 hours
Protocol: Normal human prostate endothelial cells were obtained from the ATCC (CRL-11611), and were either treated or not treated with resveratrol, at 50 μM, for 48 hours. Gene expression of the cells was compared, via standard methods.

PSA = PSA expression in prostate tissue of the experimental animals by quantitative PCR (Example 4); format: in vivo; conditions: animals treated as in Example 2
Protocol: In additional experiments following the details of example 2, supra, levels of PSA expression were tested.
Prostate tissue from the experimental animals was subjected to quantitative PCR, using well known methods. The expression of PSA was compared in untreated, and in resveratrol, and trimethoxystilbene treated animals.

Oc1ccc(/C=C/c2cc(O)cc(O)c2)cc1 [resveratrol, trans-3,5,4′-trihydroxystilbene]
effect on testosterone enanthate induced BPH (increased prostate weight/body weight ratio) [1]: reversed the induced BPH
prostates (weight) compared with controls [2]: indistinguishable from controls
share of the 376 genes known to be involved with apoptosis showing significant down regulation following treatment [3]: about 10%
level of PSA expression relative to that of the controls (PSA): about ⅓

CC(C)(C)NC(=O)[C@H]1CC[C@H]2[C@@H]3CC[C@H]4NC(=O)C=C[C@]4(C)[C@H]3CC[C@]12C [finasteride, Finasteride, reference compound]
effect on testosterone enanthate induced BPH (increased prostate weight/body weight ratio) [1]: completely reversed the effect
prostates (weight) compared with controls [2]: indistinguishable from controls

COc1ccc(/C=C/c2cc(OC)cc(OC)c2)cc1 [trimethoxystilbene]
prostates (weight) compared with controls [2]: indistinguishable from controls
level of PSA expression relative to that of the controls (PSA): about ⅓
